Data as given in patent US6734206B1, “3-oxa-8-azaprostaglandin analogs as agents for lowering intraocular pressure” (Allergan, Inc., priority 2003, dated 2004).

Assays:
hEP4 [1] = biological target: T1, hEP4 (Homo sapiens, UniProt P35408); assay: Functional data, human EP4 receptor; format: cell-based; settings: NA = not active
T1 construct: expressed in transfected cells
Experimental: (§1) Plasmids encoding the human EP1, EP2, EP3, EP4, FP, TP, IP and DP receptors were prepared by cloning the respective coding sequences into the eukaryotic expression vector pCEP4 (Invitrogen). The pCEP4 vector contains an Epstein Barr virus (EBV) origin of replication, which permits episomal replication in primate cell lines expressing EBV nuclear antigen (EBNA-1). It also contains a hygromycin resistance gene that is used for eukaryotic selection. The cells employed for stable transfection were human embryonic kidney cells (HEK-293) that were transfected with and express the EBNA-1 protein. These HEK-293-EBNA cells (Invitrogen) were grown in medium containing Geneticin (G418) to maintain expression of the EBNA-1 protein. HEK-293 cells were grown in DMEM with 10% fetal bovine serum (FBS), 250 μg ml^−1 G418 (Life Technologies) and 200 μg ml^−1 gentamicin or penicillin/streptomycin.
(§2) For transfection, the cells were grown to 50-60% confluency on 10 cm plates. The plasmid pCEP4 incorporating cDNA inserts for the respective human prostanoid receptor (20 μg) was added to 500 μl of 250 mM CaCl2. HEPES buffered saline×2 (2×HBS, 280 mM NaCl, 20 mM HEPES acid, 1.5 mM Na2HPO4, pH 7.05-7.12) was then added dropwise to a total of 500 μl, with continuous vortexing at room temperature. After 30 min, 9 ml DMEM were added to the mixture. The DNA/DMEM/calcium phosphate mixture was then added to the cells, which had been previously rinsed with 10 ml PBS. The cells were then incubated for 5 hr at 37° C. in humidified 95% air/5% CO2. The calcium phosphate solution was then removed and the cells were treated with 10% glycerol in DMEM for 2 min. The glycerol solution was then replaced by DMEM with 10% FBS. The cells were incubated overnight and the medium was replaced by DMEM/10% FBS containing 250 μg ml^−1 G418 and penicillin/streptomycin. The following day hygromycin B was added to a final concentration of 200 μg ml^−1.
(§3) Ten days after transfection, hygromycin B resistant clones were individually selected and transferred to a separate well on a 24 well plate. At confluence each clone was transferred to one well of a 6 well plate, and then expanded in a 10 cm dish. Cells were maintained under continuous hygromycin selection until use.

hTP = biological target: T2, hTP (Homo sapiens, UniProt P21731); assay: Functional data, human TP receptor; format: cell-based; settings: NA = not active
T2 construct: expressed in transfected cells
T2 sequence (P21731 1-343): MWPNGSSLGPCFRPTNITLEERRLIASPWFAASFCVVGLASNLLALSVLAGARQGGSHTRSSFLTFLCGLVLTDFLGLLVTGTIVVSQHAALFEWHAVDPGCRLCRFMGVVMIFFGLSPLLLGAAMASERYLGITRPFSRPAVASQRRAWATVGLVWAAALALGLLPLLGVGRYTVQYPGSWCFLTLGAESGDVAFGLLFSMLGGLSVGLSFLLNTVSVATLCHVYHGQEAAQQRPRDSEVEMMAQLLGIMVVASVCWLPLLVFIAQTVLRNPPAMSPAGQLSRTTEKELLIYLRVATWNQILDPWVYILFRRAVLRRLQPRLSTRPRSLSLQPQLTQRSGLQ
Experimental: as §1, §2, §3

normotensive dogs [2] = assay: Ocular surface hyperemia in dogs; format: in vivo, dog; settings: topical once daily dosing, 0.1%, 1.5 at 26, 50 and 52 h
Experimental: (§4) The effects of the compounds of this invention on intraocular pressure may be measured as follows. The compounds are prepared at the desired concentrations in a vehicle comprising 0.1% polysorbate 80 and 10 mM TRIS base. Dogs are treated by administering 25 μl to the ocular surface, the contralateral eye receives vehicle as a control. Intraocular pressure is measured by applanation pneumatonometry. A topical once daily dosing of (4-{(R)-2-[(E)-4-(3-chlorophenyl)-3-hydroxy-but-1-enyl]-5-oxo-pyrrolidin-1-yl}-butoxy)-acetic acid [example 8] […] The maximum ocular surface hyperemia score was 1.5 (1.5 at 26, 50 and 52 h).

normotensive dogs [3] = assay: Intraocular pressure in dogs, applanation pneumatonometry; format: in vivo, dog; settings: topical once daily dosing, 0.1%, at 52 h, normotensive dogs (n=8)
Experimental: as §4

hEP4 [4] = biological target: T1, hEP4; assay: Radioligand binding, human EP4 receptor; settings: NA = not active
Experimental: as §1
(§5) For transfection, the cells were grown to 50-60% confluency on 10 cm plates. The plasmid pCEP4 incorporating cDNA inserts for the respective human prostanoid receptor (20 μg) was added to 500 μl of 250 mM CaCl2. HEPES buffered saline×2 (2×HBS, 280 mM NaCl, 20 mM HEPES acid, 1.5 mM Na2HPO4, pH 7.05-7.12) was then added dropwise to a total of 500 μl, with continuous vortexing at room temperature. After 30 min, 9 ml DMEM were added to the mixture. The DNA/DMEM/calcium phosphate mixture was then added to the cells, which had been previously rinsed with 10 ml PBS. The cells were then incubated for 5 hr at 37° C. in humidified 95% air/5% CO2. […]
Radioligand binding studies on plasma membrane fractions prepared for cells stably transfected with the cat or human receptor were performed as follows. […] The pellet was then resuspended in TME buffer to provide a final protein concentration of 1 mg/ml, as determined by Bio-Rad assay. […]
The binding of [^3H](N) PGE2 (specific activity 165 Ci/mmol) was determined in duplicate and in at least 3 separate experiments. […] Competition studies were performed using a final concentration of 2.5 or 5 nM [^3H](N) PGE2 and non-specific binding was determined with 10^−5 M unlabelled PGE2.

hEP1 = biological target: T3, hEP1 (Homo sapiens, UniProt P34995); assay: Functional data, human EP1 receptor; format: cell-based; settings: NA = not active
T3 construct: expressed in transfected cells
T3 sequence (P34995 1-402): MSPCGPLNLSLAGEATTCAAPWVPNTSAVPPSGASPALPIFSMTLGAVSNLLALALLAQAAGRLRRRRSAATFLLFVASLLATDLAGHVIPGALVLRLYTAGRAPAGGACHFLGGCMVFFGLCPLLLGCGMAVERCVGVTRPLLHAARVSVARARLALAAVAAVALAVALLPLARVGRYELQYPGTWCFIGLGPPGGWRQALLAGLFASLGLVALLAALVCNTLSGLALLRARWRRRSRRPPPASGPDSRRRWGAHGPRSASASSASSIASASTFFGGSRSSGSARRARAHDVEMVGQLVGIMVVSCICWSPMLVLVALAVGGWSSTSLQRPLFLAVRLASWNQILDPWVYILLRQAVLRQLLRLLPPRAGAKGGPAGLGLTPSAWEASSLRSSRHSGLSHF
Experimental: as §1, §2
Ten days after transfection, hygromycin B resistant clones were individually selected and transferred to a separate well on a 24 well plate. […]

hEP3A = biological target: T4, hEP3A (Homo sapiens, UniProt P43115); assay: Functional data, human EP3A receptor; format: cell-based; settings: NA = not active
T4 construct: expressed in transfected cells
T4 sequence (P43115 1-390): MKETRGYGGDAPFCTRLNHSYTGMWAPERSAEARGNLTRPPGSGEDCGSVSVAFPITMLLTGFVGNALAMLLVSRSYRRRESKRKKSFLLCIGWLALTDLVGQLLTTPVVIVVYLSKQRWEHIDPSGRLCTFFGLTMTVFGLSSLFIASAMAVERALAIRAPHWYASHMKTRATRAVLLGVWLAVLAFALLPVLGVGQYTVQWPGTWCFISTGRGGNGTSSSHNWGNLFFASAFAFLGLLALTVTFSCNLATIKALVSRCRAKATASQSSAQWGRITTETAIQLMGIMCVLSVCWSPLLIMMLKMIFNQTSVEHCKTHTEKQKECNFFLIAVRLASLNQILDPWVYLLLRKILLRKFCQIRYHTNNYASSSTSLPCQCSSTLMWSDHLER
Experimental: as §1
as §5, with “mixture.” for “mixture. The DNA/DMEM/calcium phosphate mixture was then added to the cells, which had been previously rinsed with 10 ml PBS. The cells were then incubated for 5 hr at 37° C. in humidified 95% air/5% CO2.”

T1 sequence (P35408 whole entry): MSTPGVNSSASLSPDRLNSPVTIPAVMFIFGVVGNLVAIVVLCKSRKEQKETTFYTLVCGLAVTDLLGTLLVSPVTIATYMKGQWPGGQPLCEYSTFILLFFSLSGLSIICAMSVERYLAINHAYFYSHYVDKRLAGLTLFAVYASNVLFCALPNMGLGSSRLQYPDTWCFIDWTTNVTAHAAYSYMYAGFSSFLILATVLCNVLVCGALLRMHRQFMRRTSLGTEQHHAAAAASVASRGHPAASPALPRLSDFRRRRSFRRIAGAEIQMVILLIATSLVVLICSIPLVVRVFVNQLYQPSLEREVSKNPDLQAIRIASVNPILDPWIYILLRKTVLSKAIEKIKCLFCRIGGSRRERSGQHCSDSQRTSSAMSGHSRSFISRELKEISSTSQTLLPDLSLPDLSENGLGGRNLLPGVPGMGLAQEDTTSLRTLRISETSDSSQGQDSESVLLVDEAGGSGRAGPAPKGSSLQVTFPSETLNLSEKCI

| SMILES | EC50 (hEP4 [1]) [nM] | EC50 (hTP) [nM] | IC50 (hEP4 [4]) [nM] | EC50 (hEP1) [nM] | other results |
| --- | --- | --- | --- | --- | --- |
| COC(=O)COCCCCN1C(=O)CC[C@@H]1/C=C/[C@H](O)Cc1cccc(Cl)c1 [Example 7, (4-{(R)-2-[(E)-4-(3-Chlorophenyl)-3-hydroxy-but-1-enyl]-5-oxo-pyrrolidin-1-yl}-butoxy)-acetic Acid Methyl Ester] | > 10000 | – | – | – | – |
| O=C(O)COCCCCN1C(=O)CC[C@@H]1/C=C/[C@H](O)Cc1cccc(Cl)c1 [Example 8, (4-{(R)-2-[(E)-4-(3-Chlorolphenyl)-3-hydroxy-but-1-enyl]-5-oxo-pyrrolidin-1-yl}-butoxy)-acetic Acid] | 11 | > 10000 | 30 | – | maximum ocular surface hyperemia score (normotensive dogs [2]): 1.5; maximum IOP decrease from baseline (normotensive dogs [3]): 4.9 mmHg; maximum IOP decrease from baseline (percent) (normotensive dogs [3]): 26.6% |
| COC(=O)COCCCCN1C(=O)CC[C@@H]1CC[C@H](O)Cc1cccc(Cl)c1 (stereo in doubt) [Example 5, (4-{(R)-2-[4-(3-Chlorophenyl)-3-hydroxy-butyl]-5-oxo-pyrrolidin-1-yl}-butoxy)-acetic Acid Methyl Ester] | 1780 | – | – | > 10000 | – |
| O=C(O)COCCCCN1C(=O)CC[C@@H]1/C=C/C(=O)Cc1cccc(Cl)c1 [Example 2] | – | < 10000 | – | – | EC50 (hEP3A): > 10000 nM |
| COC(=O)COCCCCN1C(=O)CCC1CCC(=O)Cc1cccc(Cl)c1 (stereo in doubt) [Example 3, (4-{(R)-2-[4-(3-Chlorophenyl)-3-oxo-butyl]-5-oxo-pyrrolidin-1-yl}-butoxy)-acetic Acid Methyl Ester] | > 10000 | > 10000 | – | – | – |
| COC(=O)COCCCCN1C(=O)CC[C@@H]1/C=C/C(=O)Cc1cccc(Cl)c1 [Example 1, (4-{(R)-2-[(E)-4-(3-chlorolphenyl)-3-oxo-but-1-enyl]-5-oxo-pyrrolidin-1-yl}-butoxy)-acetic Acid Methyl Ester] | 61 | – | – | 721 | – |
| O=C(O)COCCCCN1C(=O)CC[C@@H]1CC[C@H](O)Cc1cccc(Cl)c1 (stereo in doubt) [Example 6, (4-{(R)-2-[4-(3-Chlorophenyl)-3-hydroxy-butyl]-5-oxo-pyrrolidin-1-yl}-butoxy)-acetic Acid] | 192 | > 10000 | 562 | 3810 | – |
| O=C(O)COCCCCN1C(=O)CCC1CCC(=O)Cc1cccc(Cl)c1 (stereo in doubt) [Example 4, (4-{(R)-2-[4-(3-Chlorophenyl)-3-oxo-butyl]-5-oxo-pyrrolidin-1-yl}-butoxy)-acetic Acid] | 1720 | > 10000 | 3100 | – | – |
